Measurements: patent publication US20250114313A1, “OLIGO-BENZAMIDE ANALOGS AND THEIR USE IN CANCER TREATMENT” (BOARD OF REGENTS, THE UNIVERSITY OF TEXAS SYSTEM, priority 2022, published 2025)
“Also recorded” adds a separate entry of the source.

How the values were obtained:
[1] = test system: SUM-159 cells with LIPA-KO reconstituted with LIPA constructs; assay: Response of SUM-159 LIPA KO cells reconstituted with LIPA constructs (CellTiter-Glo, western, RT-qPCR); format: cell-based, Human
Protocol: (§1) Cell viability assays: Cells were seeded in 96-well plates (2×10^3 cells/well) one day before the treatment. Cells were treated with varying concentrations of ERX-41 or ERX-11 analogs for 3-6 days. Then effects of ERX-41 or ERX-11 analogs on cell viability were measured in triplicate or sextuplicate with multiple biological replicates using the WST-1 (Promega), MTT as previously described^33 or CellTiter-Glo 2.0 (Promega) assays.
Lentiviral constructs cloning: LentiCRISPRv2 vector was used for CRSPR KO experiments. sgRNAs, which were chosen from human CRISPR knockout pooled library, were cloned into lentiCRISPRv2 vector^34. Human LIPA cDNA (GenBank: BC012287) or mouse LIPA cDNA (NM_021460) were clone into pWPI for over expression experiments. For TurboID experiment, the LIPA-TurboID sequence was cloned into pCW57-MCS1-2A-MCS2 vector. LentiCRISPR v2 was purchased from Addgene (Addgene #52961; //n2t.net/addgene:52961; RRID:Addgene_52961) (via Feng Zhang). pWPI was purchased from Addgene (Addgene #12254; //n2t.net/addgene:12254; RRID:Addgene_12254) (via Didier Trono). pCW57-MCS1-2A-MCS2 was purchased from Addgene (#71782) (via Adam Karpf). Human LIPA gene is referred as LIPA, while mouse LIPA gene is referred as mLIPA in this disclosure. Since LIPA overexpression was introduced in LIPA CRISPR KO background, to avoid being targeted by CRISPR-cas9, the LIPA sgRNA target sequence including PAM, tt aac cga att cct cat ggg agg, was mutated to tt aac cga att cct caC ggA agA in all of the LIPA overexpression constructs without protein coding change. In-Fusion Cloning kit (Takara) was used to generate different mutants of LIPA.
Western blotting: Whole cell lysates from breast cancer cells were prepared with 2× sample buffer (60 mM Tris-HCl, pH 6.8, 2% sodium dodecyl sulfate, 10% glycerol), and before loading mixed with loading buffer (5% 2-mercaptoethanol, 0.1% bromophenol blue) and boiled for denaturation, as previously described.^33 Proteins were separated by SDS-PAGE and subjected to Western analysis using antibodies. To detect nascent translated proteins, puromycin (final concentration 10 μg/mL) was added into cell plates 30 minutes before harvesting cells. Then samples were subjected to the Western blotting. Nascent proteins were detected by anti-puromycin antibody.
(§2) Real-time quantitative PCR (RT-qPCR): Total RNA was prepared from breast cancer cells using the RNeasy Mini Kit (Qiagen) according to the manufacturer protocols. Subsequently, total RNAs were reverse transcribed into cDNA using iScript Reverse Transcription Supermix (Bio-rad) and by using SYBR Green on an Illumina Real-Time PCR system.

[2] = test system: ovarian cancer cell line xenograft (ES2); assay: Ovarian cancer cell line xenograft ES2; format: in vivo, mice; settings: 10 mg/kg/day i.p.
Protocol: Animal Studies: All animal experiments were performed using UTHSA and UTSW IACUC approved protocols. For cell based xenograft tumor assays, TNBC cells (2×10^5-2×10^6) were mixed with an equal volume of matrigel and implanted in the mammary fat pads of 6-week-old female athymic nude mice as described^33. BALB/c mice were used for D2A1 syngeneic model. Once tumors reached measurable size, mice were divided into control (vehicle) and ERX-41 (10 mg/kg/oral) treatment groups. Mice bearing TNBC PDX tumors were purchased from Jackson laboratory (TM00089; TM00096; TM00098). TNBC PDX line UTPDX0001 establishment was earlier described^38. WHIM-20 ER+PDX model was purchased from Horizon Labs. OCa-PDX-38 was received from UTHSA ObGyn tissue procurement core. When tumors reached ˜750 mm^3 they were dissected into 2 mm^3 pieces and implanted into the mammary fat pads of 6 weeks old female SCID or NSG mice. When the tumor volume reached ˜200 mm^3, mice were randomized for treatment. The mice were monitored daily for adverse toxic effects and tumor volume was measured every 3-4 days using calipers. For establishing ES2 tumors, ES2/GFP/LUC cells were injected i.p. and tumors were measured twice a week using Xenogen in vivo imaging system. […] The mice were monitored daily for adverse toxic effects. […] The sections were scored by two independent evaluators blinded to the patient's clinical status.

[3] = test system: normal human mammary epithelial cells (HMEC); assay: Cell viability (WST, MTT, CellTiter-Glo), HMEC; format: cell-based; settings: at >1 μM, MTT or CellTiter-Glo
Protocol: as §1

[4] = test system: HSPA5, DDIT3, sXBP1 mRNA in TNBC cells; assay: RT-qPCR of ER stress / UPR genes, TNBC cells; format: cell-based, Human
Protocol: as §2

TNBC cells (MDA-MB-231) = assay: Transmission electron microscopy of ER; format: cell-based, Human; settings: 1 μM, within 4 h
Protocol: Transmission Electron Microscopy: DMSO or ERX-41 treated cells were fixed with 2.5% glutaraldehyde (Electron Microscopy Sciences) in 0.1 M sodium cacodylate pH7.4 buffer (Electron Microscopy Sciences) for 20 min at room temperature. After rinsing with 0.1 M sodium cacodylate pH7.4 buffer, cells were further fixed with 1% Osmium with 0.8% K3Fe(CN6) in 0.1 M sodium cacodylate pH7.4 buffer. After pre-staining with 4% uranyl acetate in 50% ethanol, cells were dehydrated with series concentrations of ethanol (from 50% to 100%). After transitioning from propylene oxide to resin and embedding in Embed 812 resin (Electron Microscopy Sciences), cells were located using light microscopy and trimmed out. 60-70 nm-thin sections were cut, mounted on formvar-coated grids, and viewed by a transmission electron microscope (Tecnai G2 spirit; FEI) equipped with a LaB6 source using a voltage of 120 kV.

CC(C)COc1cc(C(=O)Nc2ccc(C(=O)N[C@H]3CC[C@H](C)CC3)cc2OCC(C)C)ccc1NC(=O)c1ccc([N+](=O)[O-])c(OCCO)c1 [ERX-41]
responsiveness with mouse LXXLL sequence or mouse LIPA cDNA ([1]; ER stress and cell death): restore responsiveness
IC50 ([1]; Homo sapiens, SUM159, SUM-159 LIPA-KO + WT-LIPA, read-out: IC50 after reconstitution of WT-LIPA (KO+WT)): 250 nM
proliferation and ER stress with LXXLL point mutants ([1]; KO+L242P, KO+L239P/L242P, KO+L239P/L242P/L243P): inability of ERX-41 to affect proliferation or induce ER stress
sensitivity after reconstitution of ΔLXXLL MT-LIPA (KO+ΔLXXLL) ([1]; lipase-competent mutant): did not restore sensitivity to ERX-41
sensitivity after reconstitution of H274Y MT-LIPA (KO+H274Y) ([1]; lipase-incompetent mutant): restored sensitivity to ERX-41
ER stress and proliferation with LIPA with added KDEL sequence ([1]; localized to the ER): restores the ability of ERX-41 to cause ER stress
ER stress and proliferation with LIPA lacking the signal peptide ([1]; not localized to the ER): nor restore the ability of ERX-41 to cause ER stress
activity against ES2 xenograft [2]: has activity against
effect on normal human mammary epithelial cells [3]: non-toxic; also recorded: did not have significant effect
upregulation of HSPA5, DDIT3, sXBP1 mRNA ([4]; 1 μM, TNBC cells): 60-80 fold
expression of sXBP1 and DDIT3, parental SUM-159 ([4]; RT-qPCR, parental SUM-159 cells): induces expression of UPR genes sXBP1 and DDIT3
ER morphology by TEM (TNBC cells (MDA-MB-231)): dramatic dilation of the ER
